The subject of series [1] is ERβ. The note with it: cited from earlier work.
Series [2] has as its system ERα. The following applies: cited from earlier work.
Series [3] is described as follows: Plasma pharmacokinetics of Z-endoxifen (HPLC assay, non-compartmental analysis). Type of series: in vivo, human. Here is the method:
This was an open-label trial of Z-endoxifen in patients with advanced solid tumors (https://clinicaltrials.gov/ identifier: NCT01273168). Z-endoxifen-HCl was supplied by the Pharmaceutical Management Branch, National Cancer Institute, as 20 and 40 mg capsules; agent was administered orally once daily on a continuous schedule in 28-day cycles with a starting dose of 20 mg/day taken either 1 hour before or 2 hours after meals. Dose escalation followed a traditional 3+3 design in which patients were dose-escalated to the next dose level (DL) in cohorts of 3 patients until dose-limiting toxicity (DLT) was observed. DLT was defined as an adverse event that occurred during cycle 1, was thought to be related to study drug administration, and met one of the following criteria: grade ≥ 3 non-hematologic toxicities (except diarrhea, nausea and vomiting, alopecia, rising creatinine or electrolyte toxicities that resolved within 24 hours, or intolerable estrogen withdrawal symptoms) or grade ≥ 3 hematologic toxicities (except neutropenia lasting less than 5 days, lymphopenia, or anemia). Eight dose levels (DL1-8) were examined: 20, 40, 60, 100, 140, 200, 280, and 360 mg, respectively. Two patients at DL8 received the free base form of Z-endoxifen on day 1 rather than the hydrochloride salt to assess the pharmacokinetics of that formulation.
A 3-mL blood sample was collected in a K2 EDTA tube on day 1 of cycle 1 before drug administration and at the following times post-first dose: 0.5, 1, 2, 3, 4, 6, 8, and 24 hours. Samples were collected at the same time points on day 28 of cycle 1 for DL1-6 until a protocol amendment eliminated the requirement for these samples at the higher dose levels. Samples were wrapped in aluminum foil after collection to protect from light exposure. A 10-mL aliquot of urine was collected before agent administration on cycle 1 day 1, for 24 hours after dosing on day 1, and before drug administration on cycle 2 day 1; samples were refrigerated prior to analysis.
Plasma and urine concentrations of Z- and E-endoxifen were measured using a validated, post-column fluorescence derivatization HPLC assay. Non-compartmental pharmacokinetic parameters were calculated using WinNonlin version 7.0 (Pharsight Corp., Mountainview, CA, USA). A 2 μM Cmax target was established for day 28 plasma concentration. The amount of Z-endoxifen excreted in urine was measured over a 24-hour collection period.

For series [4], the system named is hormone-refractory prostate cancer. The note with it: 200 mg/m^2/day, men with hormone-refractory prostate cancer; cited from earlier work.
Series [5] concerns ovarian cancer. The following applies: patients with ovarian cancer; cited from earlier work.
For series [6], the system named is metastatic ER+ breast cancer. The following applies: women with metastatic ER+ breast cancer; cited from earlier work.
The mark [7] stands for this setting: free base, 360 mg oral, day 1, mean of patients 35 and 36.
Where [8] appears, read: free base, 360 mg oral, day 1, patients 35 and 36 individually.

Where “and” joins values, the source holds several entries; their conditions need not be identical. Identical values can stand only once. Some results are limits rather than exact numbers.

On to 4-hydroxy-tamoxifen, for which the “binding affinity relative to tamoxifen or NDM-tamoxifen” value in series [1] and in series [2] was “approximately 100 fold” throughout.

Turning to `CC/C(=C(\c1ccc(O)cc1)c1ccc(OCCNC)cc1)c1ccccc1` [free base form of Z-endoxifen], in series [3] (setting [7]), the “AUC(0–24 h), Mean” value was 25248 ng·h/mL; the “C24 h, Mean” value is listed as 790 ng/mL; the Cmax, Mean turned out to be 1770 ng/mL; the “Tmax, Mean” value was 5.0 h. In series [3] (setting [8]), the “AUC(0–24 h)” value is 8959 ng·h/mL and 41537 ng·h/mL; the C24h is 12 ng/mL and 1568 ng/mL; the time of peak concentration (Tmax) was 6.0 h and 4.0 h.

On to `CC/C(=C(/c1ccc(O)cc1)c1ccc(OCCNC)cc1)c1ccccc1` [E-endoxifen], for which the “Plasma concentration as percentage of Z-endoxifen levels” value in series [3] (after oral Z-endoxifen) is reported as < 2%.

Turning to `CC/C(=C(\c1ccccc1)c1ccc(OCCN(C)C)cc1)c1ccccc1` [tamoxifen], the “mean plasma tamoxifen concentration” value in series [4] is given as 2.94 (± 1.15) μM. In series [5], the complete responses is on record as 4%, the partial responses was 9% and the stable disease is 38%. The women deriving benefit result in series [6] is given as “about 50%”.

On to `CC/C(=C(\c1ccc(O)cc1)c1ccc(OCCNC)cc1)c1ccccc1` [Endoxifen, 4-hydroxy-N-desmethyl-tamoxifen], for which the “binding affinity relative to tamoxifen or NDM-tamoxifen” value in series [1] and in series [2] was “approximately 100 fold” each time.

These data come from paper PMC7899551, “Phase 1 study of Z-endoxifen in patients with advanced gynecologic, desmoid, and hormone receptor-positive solid tumors” (Oncotarget, 2021).
